From patent publication US20170050957A1, “4-AMINO-6-(HETEROCYCLIC)PICOLINATES AND 6-AMINO-2-(HETEROCYCLIC)PYRIMIDINE-4-CARBOXYLATES AND THEIR USE AS HERBICIDES” (Dow AgroSciences LLC, priority 2013, published 2017)
Where two headings read alike, the source gives them in different places.

Columns and labels:
[1] = tested on: Key Broadleaf Weed and Crop Species; assay: Post-emergent Test II herbicidal activity (Table 15); assay type: in vivo; details: post-emergence, 336 h, 14 d; for pest or weed control at 35 g/ha: 35 g ai/ha
Procedure: (§1) Post-emergent Test II: Seeds or nutlets of the desired test plant species were planted in Sun Gro Metro-Mix® 360 planting mixture, which typically has a pH of 6.0 to 6.8 and an organic matter content of about 30 percent, in plastic pots with a surface area of 64 square centimeters. When required to ensure good germination and healthy plants, a fungicide treatment and/or other chemical or physical treatment was applied. The plants were grown for 7-21 d in a greenhouse with an approximate 15 h photoperiod which was maintained at about 23-29° C. during the day and 22-28° C. during the night. Nutrients and water were added on a regular basis and supplemental lighting was provided with overhead metal halide 1000-Watt lamps as necessary. The plants were employed for testing when they reached the first or second true leaf stage.
(§2) A weighed amount, determined by the highest rate to be tested, of each test compound was placed in a 25 mL glass vial and was dissolved in 4 mL of a 97:3 v/v mixture of acetone and DMSO to obtain concentrated stock solutions. […] The concentrated stock solutions obtained were diluted with 20 mL of an aqueous mixture containing acetone, water, isopropyl alcohol, DMSO, Atplus 411F crop oil concentrate, and Triton® X-155 surfactant in a 48.5:39:10:1.5:1.0:0.02 v/v ratio to obtain spray solutions containing the highest application rates. Additional application rates were obtained by serial dilution of 12 mL of the high rate solution into a solution containing 2 mL of 97:3 v/v mixture of acetone and DMSO and 10 mL of an aqueous mixture containing acetone, water, isopropyl alcohol, DMSO, Atplus 411F crop oil concentrate, and Triton X-155 surfactant in a 48.5:39:10:1.5:1.0:0.02 v/v ratio to obtain 1/2×, 1/4×, 1/8× and 1/16× rates of the high rate. Compound requirements are based upon a 12 mL application volume at a rate of 187 liters per hectare (L/ha). Formulated compounds were applied to the plant material with an overhead Mandel track sprayer equipped with 8002E nozzles calibrated to deliver 187 L/ha over an application area of 0.503 square meters at a spray height of 18 inches (43 cm) above the average plant canopy height. Control plants were sprayed in the same manner with the solvent blank.
(§3) The treated plants and control plants were placed in a greenhouse as described above and watered by subirrigation to prevent wash-off of the test compounds. After 14 d, the condition of the test plants as compared with that of the untreated plants was determined visually and scored on a scale of 0 to 100 percent where 0 corresponds to no injury and 100 corresponds to complete kill.

[2] = tested on: Key Grass and Sedge Weeds as well as Grass Crops; assay: Post-emergent Test II herbicidal activity (Table 16); assay type: in vivo; details: post-emergence, 336 h, 14 days after application; for pest or weed control at 35 g/ha: 35 g ai/ha; for pest or weed control at 70 g/ha: 70 g ai/ha; for pest or weed control at 140 g/ha: 140 g ai/ha
Procedure: as §1, §2, §3

[3] = Cyperus esculentus, yellow nutsedge (Cyperus esculentus), read-out: Visual Growth Reduction (%) 14 Days After Application CYPES
[4] = Echinochloa crus-galli, barnyardgrass (Echinochloa crus-galli), read-out: Visual Growth Reduction (%) 14 Days After Application ECHCG
[5] = Oryza sativa, rice (Oryza sativa), read-out: Visual Growth Reduction (%) 14 Days After Application ORYSA
[6] = Setaria faberi, giant foxtail (Setaria faberi), read-out: Visual Growth Reduction (%) 14 Days After Application SETFA
[7] = Triticum aestivum, wheat, spring (Triticum aestivum), read-out: Visual Growth Reduction (%) 14 Days After Application TRZAS
[8] = Zea mays, maize, corn (Zea mays), read-out: Visual Growth Reduction (%) 14 Days After Application ZEAMX

Work on `C=Cc1c(C(=O)OC)nc(-c2ccc3cc[nH]c3c2F)c(F)c1N` [Compound 1.18, Methyl 4-amino-5-fluoro-6-(7-fluoro-1H-indol-6-yl)-3-vinylpicolinate] yielded a melting point of 164 to 166 °C.
`C=Cc1c(N)nc(-c2ccc3cc[nH]c3c2F)nc1C(=O)OC` [Compound 1.38] gave a melting point of 181 to 182 °C.
With `COC(=O)c1nc(-c2ccc3occc3c2)c(F)c(N)c1Cl` [Compound 2.01] the melting point was 114 to 117 °C.
In the case of `Cn1ncc2cc(-c3nc(C(=O)O)c(Cl)c(N)c3F)ccc21` [Compound 4.04], the melting point is reported as 186 to 188 °C.
`COC(=O)c1nc(-c2ccc3c(N(C)C)noc3c2)c(F)c(N)c1Cl` [Compound 8.01] gave a pest or weed control at 35 g/ha ([1]; Abutilon theophrasti, velvetleaf (Abutilon theophrasti), read-out: Visual Growth Reduction (%) 14 Days After Application, ABUTH) of 0 to 29%, a pest or weed control at 35 g/ha ([1]; Amaranthus retroflexus, redroot pigweed (Amaranthus retroflexus), read-out: Visual Growth Reduction (%) 14 Days After Application, AMARE) of 0 to 29% and a pest or weed control at 35 g/ha ([1]; Brassica napus, oilseed rape, canola (Brassica napus), read-out: Visual Growth Reduction (%) 14 Days After Application, BRSNN) of 0 to 29%. The pest or weed control at 70 g/ha ([1]; Brassica napus, oilseed rape, canola (Brassica napus), 70 g ai/ha, read-out: Visual Growth Reduction (%) 14 Days After Application, BRSNN) was 0 to 29%, the pest or weed control at 140 g/ha ([1]; Brassica napus, oilseed rape, canola (Brassica napus), 140 g ai/ha, read-out: Visual Growth Reduction (%) 14 Days After Application, BRSNN) was 0 to 29% and the pest or weed control at 35 g/ha ([1]; Chenopodium album, lambsquarters (Chenopodium album), read-out: Visual Growth Reduction (%) 14 Days After Application, CHEAL) was 0 to 29%. It also gave a pest or weed control at 35 g/ha ([1]; Euphorbia heterophylla, wild poinsettia (Euphorbia heterophylla), read-out: Visual Growth Reduction (%) 14 Days After Application, EPHHL) of 0 to 29%, a pest or weed control at 35 g/ha ([1]; Helianthus annuus, sunflower (Helianthus annuus), read-out: Visual Growth Reduction (%) 14 Days After Application, HELAN) of 0 to 29% and a pest or weed control at 35 g/ha [2, 3] of 0 to 29%. For the same molecule, the pest or weed control at 70 g/ha [2, 3] was 0 to 29%, the pest or weed control at 140 g/ha [2, 3] was 0 to 29% and the pest or weed control at 35 g/ha [2, 4] was 0 to 29%. For the same molecule, the pest or weed control at 70 g/ha [2, 4] was 0 to 29%, the pest or weed control at 140 g/ha [2, 4] was 0 to 29% and the pest or weed control at 35 g/ha [2, 5] was 0 to 29%. It also gave a pest or weed control at 70 g/ha [2, 5] of 0 to 29%, a pest or weed control at 140 g/ha [2, 5] of 0 to 29% and a pest or weed control at 35 g/ha [2, 6] of 0 to 29%. It also gave a pest or weed control at 70 g/ha [2, 6] of 0 to 29%, a pest or weed control at 140 g/ha [2, 6] of 0 to 29% and a pest or weed control at 35 g/ha [2, 7] of 0 to 29%. It also gave a pest or weed control at 70 g/ha [2, 7] of 0 to 29%, a pest or weed control at 140 g/ha [2, 7] of 0 to 29% and a pest or weed control at 35 g/ha [2, 8] of 0 to 29%. For the same molecule, the pest or weed control at 70 g/ha [2, 8] was 0 to 29% and the pest or weed control at 140 g/ha [2, 8] was 0 to 29%.
In the case of `COC(=O)c1nc(-c2cccc3[nH]ncc23)c(F)c(N)c1Cl` [Compound 4.12], the melting point is reported as 212 to 215 °C.
Molecule `COC(=O)c1nc(-c2ccc3nc[nH]c3c2)c(F)c(N)c1Cl` [Compound 7.01] has a melting point of 219 to 221 °C.
With `Cn1cnc2ccc(-c3nc(C(=O)O)c(Cl)c(N)c3F)cc21` [Compound 7.03] the melting point was 230 to 235 °C (dec.).
Molecule `Cn1ccc2ccc(-c3nc(C(=O)O)c(Cl)c(N)c3F)cc21` [Compound 1.11] has a melting point of 173 to 176 °C.
Work on `Nc1c(F)c(-c2ccc3[nH]ncc3c2)nc(C(=O)O)c1Cl` [Compound 4.02] yielded a melting point of 284 to 287 °C.
Work on `Nc1c(F)c(-c2ccc3sccc3c2)nc(C(=O)O)c1Cl` [Compound 3.04] yielded a melting point of 149 to 150 °C.
`COC(=O)c1nc(-c2ccc(Cl)c3cc[nH]c23)nc(N)c1OC` [Compound 1.50] gave a melting point of 147 to 149 °C.
For `Cn1ncc2c(-c3nc(C(=O)O)c(Cl)c(N)c3F)cccc21` [Compound 4.11], the melting point was 173 to 175 °C.
Work on `Cn1ccc2c(-c3nc(C(=O)O)c(Cl)c(N)c3F)cccc21` [Compound 1.42] yielded a melting point of 158 to 160 °C.
Molecule `COC(=O)c1nc(-c2cccc3c(Br)csc23)c(F)c(N)c1Cl` [Compound 3.26, Methyl 4-amino-6-(3-bromobenzo[b]thiophen-7-yl)-3-chloro-5-fluoropicolinate] has a melting point of 181 to 184 °C.
`COC(=O)c1nc(-c2cccc3c2ccn3C)c(F)c(N)c1Cl` [Compound 1.41] showed a melting point of 167 to 169 °C.
